What was measured:
KRASG12D = target: T1, KRASG12D (Homo sapiens, UniProt P01116, G12D); assay: Bio-Biochem-PPI-HTRF Ras-SOS1 interaction assay (KRAS G12D); format: biochemical; details: 5 nM
T1 construct: made in house; host or cells: E. coli BL21 (DE3)
In short: (§1)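 HTRF measurement of GST-K-Ras (wt or G12D) binding to His-hSOS1, via anti-GST-Eu(K) donor and anti-6His-XL665 acceptor, in HEPES pH 7.4 buffer with NaCl, DTT, BSA and Igepal. Read after ≥10 min; compounds in duplicate from 10 μM down to 0.01 μM. IC50 from 665/620 nm ratio.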

KRASwt = target: T2, KRASwt (Homo sapiens, UniProt P01116); assay: Bio-Biochem-PPI-HTRF Ras-SOS1 interaction assay (KRAS wt); format: biochemical; details: 5 nM
T2 construct: made in house; host or cells: E. coli BL21 (DE3)
In short: as §1

T1 sequence (P01116 1-188 isoform P01116-2 G12D): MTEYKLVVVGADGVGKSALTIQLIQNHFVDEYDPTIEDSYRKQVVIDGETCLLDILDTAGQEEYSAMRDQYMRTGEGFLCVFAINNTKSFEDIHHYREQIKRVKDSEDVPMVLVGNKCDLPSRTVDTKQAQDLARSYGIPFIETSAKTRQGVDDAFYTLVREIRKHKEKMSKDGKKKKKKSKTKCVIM
T2 sequence (P01116 1-188 isoform P01116-2): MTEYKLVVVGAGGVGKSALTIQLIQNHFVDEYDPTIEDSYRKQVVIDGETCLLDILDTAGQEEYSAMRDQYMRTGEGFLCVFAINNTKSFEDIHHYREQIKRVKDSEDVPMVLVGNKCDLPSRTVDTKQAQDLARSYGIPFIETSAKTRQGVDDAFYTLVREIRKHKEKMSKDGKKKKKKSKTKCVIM

Row | SMILES | IC50 (KRASG12D) [µM] | IC50 (KRASwt) [µM]
1 | N#Cc1c(N)sc2c(F)ccc(-c3c(Cl)cc4c(N5CCCCC6(CN(C(=O)C7CCC7C#N)C6)C5)nc(OC[C@@]56CCCN5C[C@H](F)C6)nc4c3F)c12 (stereo partly drawn) [compound 345, 2-amino-4-(6-chloro-4-(2-(2-cyanocyclobutane-1-carbonyl)-2,6-diazaspiro[3.6]decan-6-yl)-8-fluoro-2-(((2R,7aS)-2-fluorotetrahydro-1H-pyrrolizin-7a(5H)-yl)methoxy)quinazolin-7-yl)-7-fluorobenzo[b]thiophene-3-carbonitrile] | < 5 | < 5
2 | N#Cc1c(N)sc2c(F)ccc(-c3c(Cl)cc4c(N5CCCCC6(CN(C(=O)C7CC78CC8)C6)C5)nc(OC[C@@]56CCCN5C[C@H](F)C6)nc4c3F)c12 (stereo partly drawn) [compound 286, 2-amino-4-(6-chloro-8-fluoro-2-(((2R,7aS)-2-fluorotetrahydro-1H-pyrrolizin-7a(5H)-yl)methoxy)-4-(2-(spiro[2.2]pentane-1-carbonyl)-2,6-diazaspiro[3.6]decan-6-yl)quinazolin-7-yl)-7-fluorobenzo[b]thiophene-3-carbonitrile] | < 5 | < 5
3 | N#Cc1c(N)sc2c(F)ccc(-c3c(Cl)cc4c(N5CCCCC6(CN(C(=O)C7(CC(F)F)CC7)C6)C5)nc(OC[C@@]56CCCN5C[C@H](F)C6)nc4c3F)c12 [compound 227, 2-amino-4-(6-chloro-4-(2-(1-(2,2-difluoroethyl)cyclopropane-1-carbonyl)-2,6-diazaspiro[3.6]decan-6-yl)-8-fluoro-2-(((2R,7aS)-2-fluorotetrahydro-1H-pyrrolizin-7a(5H)-yl)methoxy)quinazolin-7-yl)-7-fluorobenzo[b]thiophene-3-carbonitrile] | < 5 | < 5
4 | N#Cc1c(N)sc2c(F)ccc(-c3c(Cl)cc4c(N5CCOC6(CNC6)C5)nc(OC[C@@]56CCCN5C[C@H](F)C6)nc4c3F)c12 [compound 175, 2-amino-4-(6-chloro-8-fluoro-2-(((2R,7aS)-2-fluorotetrahydro-1H-pyrrolizin-7a(5H)-yl)methoxy)-4-(5-oxa-2,8-diazaspiro[3.5]nonan-8-yl)quinazolin-7-yl)-7-fluorobenzo[b]thiophene-3-carbonitrile] | < 5 | < 5
5 | N#Cc1c(N)sc2c(F)ccc(-c3c(Cl)cc4c(N5CCCCC6(CN(C(=O)C7(CN8CCOCC8)CC7)C6)C5)nc(OC[C@@]56CCCN5C[C@H](F)C6)nc4c3F)c12 [compound 278, 2-amino-4-(6-chloro-8-fluoro-2-(((2R,7aS)-2-fluorotetrahydro-1H-pyrrolizin-7a(5H)-yl)methoxy)-4-(2-(1-(morpholinomethyl)cyclopropane-1-carbonyl)-2,6-diazaspiro[3.6]decan-6-yl)quinazolin-7-yl)-7-fluorobenzo[b]thiophene-3-carbonitrile] | < 5 | < 5
6 | N#Cc1c(N)sc2c(F)ccc(-c3c(Cl)cc4c(N5CCCCC6(CN(C(=O)C78COCC7C8)C6)C5)nc(OC[C@@]56CCCN5C[C@H](F)C6)nc4c3F)c12 (stereo partly drawn) [compound 333, 4-(4-(2-(3-oxabicyclo[3.1.0]hexane-1-carbonyl)-2,6-diazaspiro [3.6]decan-6-yl)-6-chloro-8-fluoro-2-(((2R,7aS)-2-fluorotetrahydro-1H-pyrrolizin-7a(5H)-yl)methoxy)quinazolin-7-yl)-2-amino-7-fluorobenzo[b]thiophene-3-carbonitrile] | < 5 | < 5
7 | N#Cc1c(N)sc2c(F)ccc(-c3c(Cl)cc4c(N5CCCCC6(CN(C(=O)C7CC8(C7)CC8(F)F)C6)C5)nc(OC[C@@]56CCCN5C[C@H](F)C6)nc4c3F)c12 (stereo partly drawn) [compound 309, 2-amino-4-(6-chloro-4-(2-(1,1-difluorospiro[2.3]hexane-5-carbonyl)-2,6-diazaspiro[3.6]decan-6-yl)-8-fluoro-2-(((2R,7aS)-2-fluorotetrahydro-1H-pyrrolizin-7a(5H)-yl)methoxy)quinazolin-7-yl)-7-fluorobenzo[b]thiophene-3-carbonitrile] | < 5 | < 5

Source: patent publication US20240109918A1, “HETEROCYCLIC COMPOUNDS AND USES THEREOF” (Kumquat Biosciences Inc., priority 2022, published 2024)
